Measured values reported in the RepoRT retention time repository.

Assay: Agilent ZORBAX 300 SB-C18, 150 × 1 mm, 3.5 µm; A: water + 0.01% heptafluorobutyric acid; B: acetonitrile + 0.01% heptafluorobutyric acid; gradient (min/%B) 0/0 100/90
Details: stereoisomer not certain

LC retention time	SMILES
8.66 min	Cc1cc(C)c(CO)cc1C=NNC(N)=O
15.1 min	Cc1ccc(C=C2C(=O)c3ccccc3C2=O)o1
9.45 min	Cc1nc(=S)c2ccccc2[nH]1
1.45 min	Nc1cccc(S(=O)(=O)O)c1
8.53 min	CCCCCCN(C)C
15 min	Cc1ccc(-c2nc(-c3ccc(-c4ccccc4)cc3)[nH]c2-c2ccccc2)cc1C
12.4 min	O=C1OC(c2c[nH]c3ccccc23)c2ccccc21 (configuration not stated)
10.1 min	c1ccc(CN(CC2=NCCN2)c2ccccc2)cc1
9.56 min	CN1C(=O)NC(c2ccccc2)C2=C1CN(c1ccc(CC(=O)O)cc1)C2=O (configuration not stated)
16.1 min	OC(Cc1c[nH]c2ccccc12)(c1ccccc1)c1ccccc1
10.4 min	CC(C)NCC(O)COc1cccc2ccccc12 (configuration not stated)
9.96 min	CCCNC(=O)c1c[nH]c2ccccc12
8.31 min	c1cncc(Cn2cccc2)c1
12.2 min	O=c1[nH]c2ccccc2n1CCOc1ccccc1
10.4 min	Cc1ccc(-c2cnc3ccccc3[n+]2C)c(C)c1
9.52 min	Cc1ccc(CN2C(=O)CCC2=O)o1
11.7 min	CCOc1nc(N(c2ccccc2)c2ccccc2)[nH]c(=O)n1
9.15 min	O=C1NC(=O)C(c2ccccc2)(c2ccc(O)cc2)N1 (configuration not stated)
18.7 min	O=C1CCCc2c1[nH]c1ccc(C3CCCCC3)cc21
7.71 min	CC1(C)CC(NCC(=O)NC2CC(C)(C)NC(C)(C)C2)CC(C)(C)N1
7.33 min	c1cncc(N2CCN(c3cccnc3)CC2)c1
7.39 min	CC1(C)CC(N)CC(C)(CN)C1 (configuration not stated)
7.34 min	CNC(=O)CC1Nc2ccccc2NC1=O (configuration not stated)

LC retention time	SMILES
7.07 min	C=CCNCC=C
7.09 min	Cc1cc(=O)n(C)c(=O)n1CCCN1CCCC1
7.16 min	Nc1nc(N)nc(-c2ccc(-c3nc(N)nc(N)n3)cc2)n1
11.6 min	CC(=O)Oc1c[nH]c2ccccc12
14.5 min	CCCCc1c(O)c2ccccc2n(-c2ccccc2)c1=O
9.65 min	CN(Cc1ccccc1)C(=S)Nc1cccnc1
11 min	CCCCCCCCCN
11.6 min	Nc1ccc(C(=O)NN=Cc2cccc3ccccc23)cc1
2.99 min	C1=CCNC1
12.4 min	Nc1ccccc1C(=O)N1CCc2ccccc21
9.79 min	O=Cc1cccc2[nH]ccc12
14.4 min	Cc1ccc(-n2c(C)cc(C=CC(=O)O)c2C)cc1
6.54 min	O=C(O)C1Cc2ccccc2CN1 (configuration not stated)
11.9 min	Cc1cc(O)c(C(C)C)cc1NC(=O)Cn1nc(C)c2ccccc2c1=O
7.49 min	Cn1c(=O)c2c(ncn2C)n(C)c1=O
7.27 min	c1ccc2ncccc2c1
7.58 min	CN1C(=O)CC(CN)c2ccccc21 (configuration not stated)
9.41 min	CC=CC(=O)CC
12.4 min	CCCCCCCCC(N)=O
6.48 min	CC1CNCCN1 (configuration not stated)
11.4 min	O=C(c1n[nH]c(=O)c2ccccc12)N1CCN(C(c2ccccc2)c2ccccc2)CC1
9.2 min	O=C(O)CNc1ccccc1C(=O)O
15.1 min	c1ccc(-c2cc3cc4c(cc3[nH]2)OCO4)cc1

LC retention time	SMILES
7.19 min	CCN(CC)CCN(CC)CC
10.4 min	CC(=O)Nc1coc2ccccc12
7.25 min	CCOC(=O)C(N)CCCN=C(N)N (configuration not stated)
8.77 min	CCNCC(=O)Nc1c(C)cccc1C
11.4 min	CCOC(=O)CN1C(=O)N(C)Cc2ccccc21
9.25 min	COc1ccc2nc(C)c3c(c2c1)OC(C)C3 (configuration not stated)
7.08 min	CC(c1ccccc1)C(N)C(=O)O (configuration not stated)
12 min	c1ccc2[nH]c(CCn3c4c(c5ccccc53)CCCC4)nc2c1
10.8 min	Cc1ccc(C=NNC(N)=S)cc1
6.87 min	CN(C)C(=O)c1ccc(N)cc1
10.8 min	CCn1c2ccccc2c2cc(CNC3CC3)ccc21
6.3 min	C=Cn1ccnc1
12.5 min	O=C(c1ccc(CN2CCc3ccccc3C2)cc1)N(Cc1ccccc1)Cc1ccccc1
7.61 min	CC1(C)CC(NC(=O)c2ccccc2C(=O)NC2CC(C)(C)NC(C)(C)C2)CC(C)(C)N1
12.5 min	COc1ccc(N2CC(C(=O)Nc3c(C)cc(C)cc3C)CC2=O)cc1 (configuration not stated)
11.1 min	Cc1nc2ccccc2nc1N=C(N)NC(=O)c1ccccc1
11.7 min	Cn1c(C(=O)N2CCN(C(c3ccccc3)c3ccccc3)CC2)cc(=O)n(C)c1=O
11.1 min	NC(=O)c1cc2c(ccc3ccccc32)oc1=O
3.29 min	CC(N)(CO)CO
4.53 min	Cc1ncc[nH]1
10.8 min	CCCNC(=O)Nc1ccc(C(=O)OC)cc1
13.6 min	Nc1ccc2c(c1)C(=O)N(c1ccc3ccccc3c1)C2=O
8.67 min	Cc1ccc2ccc3ccc(C)nc3c2n1

LC retention time	SMILES
8.09 min	NCCCCC(NC(CCc1ccccc1)C(=O)[O-])C(=O)N1CCCC1C(=O)O (configuration not stated)
15 min	CCCCN(C)C(=O)Cn1c(=O)c2c(C)cc(C)nc2n(-c2ccccc2)c1=O
8.76 min	CC(=NNC(=O)C[n+]1ccccc1)c1ccccc1
9 min	CC(=O)c1ccc2c(c1)n(C)c(=O)n2C
7.29 min	CN(C)c1ccncc1
8.43 min	Cc1ccnc2c1ccc1cccnc12
8.65 min	Cc1nn(-c2ccc(C(=O)N3CCN(C)CC3)cc2)c(=O)c2ccccc12
10.3 min	Cc1ccc(C(=O)c2ccc(C)c(N)c2)cc1N
16.7 min	CC(C)(C)c1ccc(C2Nc3ccccc3C(=O)N2c2ccccc2)cc1 (configuration not stated)
15.4 min	CN(C)c1ccc(C=NNC(=O)C(c2ccccc2)c2ccccc2)cc1
9.29 min	c1ccc(-c2cccc(-c3ccccn3)n2)nc1
11.6 min	CN1CCN(C(=O)c2cc(C(C)(C)C)cc(C(C)(C)C)c2)CC1
13.1 min	O=C1CCC=C1CSc1ccccc1
12.2 min	CCCCCCCCCCCN
7.8 min	COC(=O)Cn1c(C)cc(C)c(N)c1=O
9.05 min	NC(=O)c1ccccc1NC(=O)Cn1cnc2ccccc2c1=O
11.3 min	COc1cc(CNC(=O)Nc2ccccc2)cc(OC)c1OC
6.42 min	NCCN1CCNCC1
11.1 min	CCOC(=O)CC(=O)Nc1ccc(C(=O)OC)cc1
8.21 min	O=C1CCCC(O)=C1C1(O)C(=O)c2ccccc2C1=O
11.3 min	CN(c1ccccc1)c1nc(-n2ccnc2)nc(-n2ccnc2)n1
10.1 min	CC(C)CC(=O)Nc1cccc(C(=O)O)c1
6.48 min	CN1CCNCC1

LC retention time	SMILES
9.17 min	CCCNC(C)C(=O)Nc1ccccc1C (configuration not stated)
10.5 min	O=C(CC1COc2ccccc2O1)N1CCOCC1 (configuration not stated)
7.01 min	c1ccc(CN2CCCC2)nc1
13.5 min	C#CC(C)(CC)NC(=O)C(=Cc1ccccc1)NC(=O)c1ccccc1 (configuration not stated)
15 min	CC(c1ccccc1)C1Nc2ccccc2C(=O)N1c1ccccc1 (configuration not stated)
8.55 min	CN1CCCN=C1C=Cc1cccs1
7.39 min	C=CCN1CCNCC1
12 min	O=C1CN(C(=O)CCCc2c[nH]c3ccccc23)c2ccccc2N1
12.8 min	CC(C)c1ccc(C=NNC(N)=S)cc1
17.8 min	O=C(Nc1ccc(C(=O)c2ccccc2)cc1)c1ccc(-c2ccccc2)cc1
16.8 min	CC(C)(C)c1ccc(-c2nnnn2-c2ccccc2)cc1
12.9 min	Cc1ccc(C)n1-c1cccc(C(=O)O)c1
12.1 min	O=C(CC1NC(=O)N(C2CCCCC2)C1=O)NCCc1c[nH]c2ccccc12 (configuration not stated)
11.2 min	O=c1c(C=NCc2ccco2)c(NCc2ccco2)nc2ccccn12
6.54 min	CNc1ccccn1
8.55 min	CC1(C)CC(NCC(=O)OC2CCCCC2)CC(C)(C)N1
11.7 min	CCN(CC)c1ccc(C(=O)NCC(C)C)cc1
13.3 min	NC(=O)CCCCCCCCCC(Cc1ccccc1)C(=O)O (configuration not stated)
16.2 min	COC(=O)Cn1c2c(c3ccccc31)CCCC2
1.55 min	CC(=O)NC(NC(C)=O)C(O)C(O)C(O)C(O)CO (configuration not stated)
9.27 min	NC1=NC(=Nc2ccc(N3CCOCC3)cc2)c2ccccc21
16.3 min	CC(C)c1cc[nH]c1-c1ccccc1
15.9 min	CCOc1cc(C(=O)N(CC)c2ccccc2)cc(OCC)c1OCC

SMILES	LC retention time
O=c1[nH]c2ccccc2c(=O)n1-c1cccnc1	8.1 min
CCC1(CC)C(=O)NCC(C)C1=O (configuration not stated)	9.1 min
CN1CCN(c2nc(N)cc(=O)[nH]2)CC1	5.8 min
Cc1ccc(NC2=NCCCS2)cc1	8.91 min
COc1cc(CCN)cc(OC)c1OC	8.22 min
CC(=O)NC1CCN(C)C2CCCCC12 (configuration not stated)	7.11 min
Cc1cc(C=O)c(C)n1C(C)C	11.1 min
C=CCN1CCC23CCCCC2C1Cc1ccc(O)cc13 (configuration not stated)	9.82 min
CCC1(c2ccccc2)CCC(=O)NC1=O (configuration not stated)	11.5 min
CN(C)c1ccc(CCN)cc1	7.22 min
CN(C)C1CCCCC1	7.57 min
C=CCNC1CCCCC1	7.93 min
